Results reported in ChEMBL document CHEMBL3046589, “Synthesis and Fungicidal Activities of (-Methoxybenzyl) isoxazoles” (2000).

What was measured:
Format in all cases: functional
[1] = tested on: Pseudoperonospora cubensis; test: Preventive fungicidal activity against Pseudoperonospora cubensis infected cucumber leaves at 500 ppm after by foliar application method
Botrytis cinerea = test: Preventive fungicidal activity against Botryotinia fuckeliana infected cucumber leaves at 500 ppm after by foliar application method
Podosphaera fuliginea [2] = test: Preventive fungicidal activity against Podosphaera fuliginea infected cucumber leaves at 31.3 ppm after by foliar application method
Podosphaera fuliginea [3] = test: Preventive fungicidal activity against Podosphaera fuliginea infected cucumber leaves at 7.8 ppm after by foliar application method
Podosphaera fuliginea [4] = test: Preventive fungicidal activity against Podosphaera fuliginea infected cucumber leaves at 125 ppm after by foliar application method
Podosphaera fuliginea [5] = test: Curative fungicidal activity against Podosphaera fuliginea infected cucumber leaves at 31.3 ppm after by foliar application method
[6] = tested on: Pseudoperonospora cubensis; test: Preventive fungicidal activity against Pseudoperonospora cubensis infected cucumber leaves at 31.3 ppm after by foliar application method
[7] = tested on: Pseudoperonospora cubensis; test: Curative fungicidal activity against Pseudoperonospora cubensis infected cucumber leaves at 7.8 ppm after by foliar application method
[8] = tested on: Pseudoperonospora cubensis; test: Preventive fungicidal activity against Pseudoperonospora cubensis infected cucumber leaves at 7.8 ppm after by foliar application method
Podosphaera fuliginea [9] = test: Curative fungicidal activity against Podosphaera fuliginea infected cucumber leaves at 7.8 ppm after by foliar application method
[10] = tested on: Pseudoperonospora cubensis; test: Curative fungicidal activity against Pseudoperonospora cubensis infected cucumber leaves at 31.3 ppm after by foliar application method
[11] = tested on: Pseudoperonospora cubensis; test: Preventive fungicidal activity against Pseudoperonospora cubensis infected cucumber leaves at 125 ppm after by foliar application method
Podosphaera fuliginea [12] = test: Preventive fungicidal activity against Podosphaera fuliginea infected cucumber leaves at 500 ppm after by foliar application method
Myzus persicae [13] = test: Insecticidal activity against Myzus persicae (green peach aphid) nymphs fed with Chinese cabbage leaf assessed as mortality at 62.5 ppm applied through spraying measured after 48 hr
Myzus persicae [14] = test: Insecticidal activity against Myzus persicae (green peach aphid) nymphs fed with chinese cabbage leaf assessed as mortality at 15.6 ppm applied through spraying measured after 48 hr
Myzus persicae [15] = test: Insecticidal activity against Myzus persicae (green peach aphid) nymphs fed with Chinese cabbage leaf assessed as mortality at 250 ppm applied through spraying measured after 48 hr

Question: Which results are given for `COC(c1cc(C)no1)c1ccccc1CO/N=C(\C)c1ccc(Cl)cc1` (stereo not drawn)?
Answer: Activity [1]: 50%; Activity (Botrytis cinerea): 50%; Activity (Podosphaera fuliginea [2]): 90%

Question: `COC(c1cc(C)no1)c1ccccc1COc1cc(C)ccc1C` (stereo not drawn) was tested. Which Activity [1] did it give?
Answer: Its Activity is 50%.

Question: What about the Activity (Podosphaera fuliginea [3]) of the same molecule?
Answer: The Activity was 90%.

Question: And the Activity (Botrytis cinerea)?
Answer: Its Activity is 50%.

Question: Which results are given for `COC(c1cc(C)no1)c1ccccc1COc1ccc(C(F)(F)F)cn1` (stereo not drawn)?
Answer: Activity [1]: 50%; Activity (Podosphaera fuliginea [4]): 90%; Activity (Botrytis cinerea): 50%

Question: With `CO/N=C(\c1ccon1)c1ccccc1COc1cc(C)ccc1C` as the molecule, how does the Activity (Podosphaera fuliginea [5]) read?
Answer: The Activity was 0%.

Question: What about the Activity [6] of the same molecule?
Answer: The Activity was 0%.

Question: What about the Activity [7] of the same molecule?
Answer: Its Activity is 100%.

Question: And the Activity (Podosphaera fuliginea [3])?
Answer: Its Activity is 100%.

Question: And the Activity [8]?
Answer: Its Activity is 0%.

Question: What about the Activity (Podosphaera fuliginea [2]) of the same molecule?
Answer: The Activity was 100%.

Question: And the Activity (Podosphaera fuliginea [9])?
Answer: Its Activity is 0%.

Question: What about the Activity [10] of the same molecule?
Answer: Its Activity is 100%.

Question: What does the source list for `COC(c1cc(C)no1)c1ccccc1COc1ccccc1C` (stereo not drawn)?
Answer: Activity [1]: 50%; Activity (Botrytis cinerea): 50%; Activity (Podosphaera fuliginea [2]): 90%

Question: What does the source list for `COC(c1cc(C)no1)c1ccccc1CO/N=C(\SC)c1ccc(Cl)cc1` (stereo not drawn)?
Answer: Activity [1]: 50%; Activity (Podosphaera fuliginea [4]): 90%; Activity (Botrytis cinerea): 50%

Question: `CNC(=O)/C(=N/OC)c1ccccc1Oc1ccccc1` [METOMINOSTROBIN] was tested. Which Activity (Podosphaera fuliginea [5]) did it give?
Answer: The Activity was 40%.

Question: What about the Activity [6] of the same molecule?
Answer: Its Activity is 60%.

Question: And the Activity [7]?
Answer: The Activity was 70%.

Question: What about the Activity (Podosphaera fuliginea [3]) of the same molecule?
Answer: Its Activity is 70%.

Question: What about the Activity [8] of the same molecule?
Answer: Its Activity is 40%.

Question: And the Activity (Podosphaera fuliginea [2])?
Answer: The Activity was 100%.

Question: And the Activity (Podosphaera fuliginea [9])?
Answer: Its Activity is 0%.

Question: And the Activity [10]?
Answer: Its Activity is 97%.

Question: For `COc1ccc(/C(C)=N/N=C/c2ccccc2C(OC)c2cc(C)no2)cc1` (stereo not drawn), which Activity [11] is on record?
Answer: The Activity was 50%.

Question: And the Activity (Podosphaera fuliginea [4])?
Answer: Its Activity is 90%.

Question: Which Activity (Podosphaera fuliginea [12]) does the source give for `COC(c1cc(C)no1)c1ccccc1/C=N/N=C(\C)c1ccccc1Cl` (stereo not drawn) here?
Answer: Its Activity is 90%.

Question: What about the Activity [1] of the same molecule?
Answer: The Activity was 50%.

Question: With `COC(c1cc(C)no1)c1ccccc1/C=N/N=C(\C)c1cccc(Cl)c1` (stereo not drawn) as the molecule, how does the Activity [1] read?
Answer: The Activity was 50%.

Question: Which results are given for `COC(c1cc(C)no1)c1ccccc1/C=N/N=C(\C)c1ccc(Br)cc1` (stereo not drawn)?
Answer: Activity (Podosphaera fuliginea [5]): 70%; Activity [6]: 70%; Activity [7]: 100%; Activity (Podosphaera fuliginea [3]): 100%; Activity [8]: 50%; Activity (Podosphaera fuliginea [2]): 100%; Activity (Podosphaera fuliginea [9]): 50%; Activity [10]: 100%

Question: Which Activity [1] does the source give for `COC(c1cc(C)no1)c1ccccc1/C=N/N=C(\C)c1ccc(F)cc1` (stereo not drawn) here?
Answer: The Activity was 50%.

Question: And the Activity (Podosphaera fuliginea [4])?
Answer: The Activity was 90%.

Question: With `COC(c1cc(C)no1)c1ccccc1Oc1cc(Oc2ccccc2C#N)ncn1` (stereo not drawn) as the molecule, how does the Activity (Podosphaera fuliginea [12]) read?
Answer: Its Activity is 90%.

Question: And the Activity [1]?
Answer: Its Activity is 50%.

Question: And the Activity (Botrytis cinerea)?
Answer: The Activity was 50%.

Question: What does the source list for `COC(c1cc(C)no1)c1ccccc1/C=N/N=C(\C)c1ccc(Cl)c(Cl)c1` (stereo not drawn)?
Answer: Activity (Podosphaera fuliginea [5]): 70%; mortality at 62.5 ppm (Myzus persicae [13]): 3%; Activity [6]: 70%; Activity [7]: 100%; Activity (Podosphaera fuliginea [3]): 100%; Activity [8]: 30%; Activity (Podosphaera fuliginea [2]): 100%; mortality at 15.6 ppm (Myzus persicae [14]): 0%; Activity (Podosphaera fuliginea [9]): 30%; Activity [10]: 100%; mortality at 250 ppm (Myzus persicae [15]): 3%

Question: `COC(c1ccccc1COc1cc(C)ccc1C)c1c(C)noc1C` (stereo not drawn) was tested. Which Activity (Podosphaera fuliginea [12]) did it give?
Answer: Its Activity is 90%.

Question: And the Activity [1]?
Answer: Its Activity is 50%.

Question: And the Activity (Botrytis cinerea)?
Answer: The Activity was 50%.

Question: With `COC(c1cc(C)no1)c1ccccc1Oc1ncc(C(F)(F)F)cc1Cl` (stereo not drawn) as the molecule, how does the Activity [1] read?
Answer: Its Activity is 50%.

Question: What about the Activity (Botrytis cinerea) of the same molecule?
Answer: Its Activity is 50%.

Question: With `COC(c1ccccc1COc1cc(C)ccc1C)C1CC(C)=NO1` (stereo not drawn) as the molecule, how does the Activity (Podosphaera fuliginea [12]) read?
Answer: The Activity was 90%.

Question: What about the Activity [1] of the same molecule?
Answer: The Activity was 50%.

Question: And the Activity (Botrytis cinerea)?
Answer: Its Activity is 50%.

Question: For `COC(c1cc(C)no1)c1ccccc1/C=N/OC(C)c1ccc(Cl)cc1` (stereo not drawn), which Activity [1] is on record?
Answer: Its Activity is 50%.

Question: What about the Activity (Podosphaera fuliginea [3]) of the same molecule?
Answer: Its Activity is 90%.

Question: And the Activity (Botrytis cinerea)?
Answer: Its Activity is 50%.

Question: With `COC(c1cc(C)no1)c1ccccc1/C=N/N=C(\C)c1ccc(C(F)(F)F)cc1` (stereo not drawn) as the molecule, how does the mortality at 62.5 ppm (Myzus persicae [13]) read?
Answer: The mortality at 62.5 ppm was 1%.

Question: And the Activity [6]?
Answer: The Activity was 50%.

Question: What about the Activity (Podosphaera fuliginea [3]) of the same molecule?
Answer: Its Activity is 90%.

Question: And the mortality at 15.6 ppm (Myzus persicae [14])?
Answer: The mortality at 15.6 ppm was 0%.

Question: What about the mortality at 250 ppm (Myzus persicae [15]) of the same molecule?
Answer: Its mortality at 250 ppm is 2%.

Question: For `COC(c1cc(C)no1)c1ccccc1/C=N/N=C(\C)c1ccc(OC(F)(F)F)cc1` (stereo not drawn), which Activity (Podosphaera fuliginea [5]) is on record?
Answer: The Activity was 45%.

Question: What about the Activity [6] of the same molecule?
Answer: The Activity was 60%.

Question: And the Activity [7]?
Answer: The Activity was 100%.

Question: And the Activity (Podosphaera fuliginea [3])?
Answer: Its Activity is 100%.

Question: What about the Activity [8] of the same molecule?
Answer: Its Activity is 50%.

Question: What about the Activity (Podosphaera fuliginea [2]) of the same molecule?
Answer: The Activity was 100%.

Question: And the Activity (Podosphaera fuliginea [9])?
Answer: Its Activity is 0%.

Question: And the Activity [10]?
Answer: Its Activity is 100%.

Question: With `COC(c1ccon1)c1ccccc1COc1cc(C)ccc1C` (stereo not drawn) as the molecule, how does the Activity [1] read?
Answer: The Activity was 50%.

Question: What about the Activity (Botrytis cinerea) of the same molecule?
Answer: The Activity was 50%.

Question: What about the Activity (Podosphaera fuliginea [2]) of the same molecule?
Answer: Its Activity is 90%.

Question: What does the source list for `COC(c1cc(C)no1)c1ccccc1/C=N/N=C(\C)c1ccc(C)cc1` (stereo not drawn)?
Answer: Activity [1]: 50%; Activity (Podosphaera fuliginea [2]): 90%

Question: Which Activity (Podosphaera fuliginea [12]) does the source give for `COC(c1cc(C)no1)c1ccccc1/C=N/N=C(\C)c1ccccc1Br` (stereo not drawn) here?
Answer: Its Activity is 90%.

Question: What about the Activity [1] of the same molecule?
Answer: Its Activity is 50%.

Question: Which results are given for `COC(c1cc(C)on1)c1ccccc1COc1cc(C)ccc1C` (stereo not drawn)?
Answer: Activity [1]: 50%; Activity (Botrytis cinerea): 50%; Activity (Podosphaera fuliginea [2]): 90%

Question: What does the source list for `COC(c1cc(C)no1)c1ccccc1/C=N/N=C(\C)c1ccc(Cl)cc1` (stereo not drawn)?
Answer: mortality at 62.5 ppm (Myzus persicae [13]): 1%; Activity [6]: 50%; Activity (Podosphaera fuliginea [3]): 90%; Activity (Botrytis cinerea): 50%; mortality at 15.6 ppm (Myzus persicae [14]): 0%; mortality at 250 ppm (Myzus persicae [15]): 2%

Question: How did the Activity (Podosphaera fuliginea [12]) turn out when `COC(c1cc(C)no1)c1ccccc1/C=C/c1ccc(Cl)cc1` (stereo not drawn) was run?
Answer: The Activity was 90%.

Question: What about the Activity [1] of the same molecule?
Answer: The Activity was 50%.

Question: What about the Activity (Botrytis cinerea) of the same molecule?
Answer: Its Activity is 50%.

Question: What does the source list for `CC(C)C(C(=O)OC(C#N)c1cccc(Oc2ccccc2)c1)c1ccc(OC(F)F)cc1` (stereo not drawn) [FLUCYTHRINATE]?
Answer: mortality at 62.5 ppm (Myzus persicae [13]): 3%; mortality at 15.6 ppm (Myzus persicae [14]): 3%; mortality at 250 ppm (Myzus persicae [15]): 3%

Question: What does the source list for `COC(c1cc(C)no1)c1ccccc1/C=N/N=C(\C)c1ccccc1` (stereo not drawn)?
Answer: Activity (Podosphaera fuliginea [12]): 90%; Activity [1]: 50%

Question: `COC(c1cc(C)no1)c1ccccc1/C=N/N=C(\C)c1ccc(Cl)cc1Cl` (stereo not drawn) was tested. Which Activity [1] did it give?
Answer: Its Activity is 50%.

Question: And the Activity (Podosphaera fuliginea [2])?
Answer: The Activity was 90%.

Question: For `COC(C1=NOCC1)c1ccccc1COc1cc(C)ccc1C` (stereo not drawn), which Activity [1] is on record?
Answer: Its Activity is 50%.

Question: What about the Activity (Podosphaera fuliginea [4]) of the same molecule?
Answer: The Activity was 90%.

Question: And the Activity (Botrytis cinerea)?
Answer: Its Activity is 50%.

Question: For `COC(c1cc(C)no1)c1ccccc1COc1ncc(C(F)(F)F)cc1Cl` (stereo not drawn), which Activity [1] is on record?
Answer: Its Activity is 50%.

Question: And the Activity (Botrytis cinerea)?
Answer: The Activity was 50%.

Question: And the Activity (Podosphaera fuliginea [2])?
Answer: Its Activity is 90%.

Question: Which Activity [1] does the source give for `COC(c1cc(C)no1)c1ccccc1Oc1ccccc1` (stereo not drawn) here?
Answer: The Activity was 50%.

Question: What about the Activity (Botrytis cinerea) of the same molecule?
Answer: Its Activity is 50%.
